Source: PubChem BioAssay (NCI)
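Assay format: 96-well plates, 48-hour exposure. GI50 = concentration required for 50% inhibition of growth. TGI marks complete inhibition of growth.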

What was measured:
Assay in all cases: inhibition of tumour cell growth, NCI panel, 48 h
K-562 leukemia = system: K-562 leukemia
ACHN renal = system: ACHN renal
HOP-62 NSCLC = system: HOP-62 NSCLC
CCRF-CEM leukemia = system: CCRF-CEM leukemia
MCF7 breast = system: MCF7 breast
SNB-19 CNS = system: SNB-19 CNS
NCI/ADR-RES ovarian = system: NCI/ADR-RES ovarian
SF-268 CNS = system: SF-268 CNS
EKVX NSCLC = system: EKVX NSCLC
M14 melanoma = system: M14 melanoma

SMILES | GI50 (K-562 leukemia) | TGI (K-562 leukemia) | GI50 (ACHN renal) | TGI (ACHN renal) | GI50 (HOP-62 NSCLC) | TGI (HOP-62 NSCLC) | GI50 (CCRF-CEM leukemia) | TGI (CCRF-CEM leukemia) | GI50 (MCF7 breast) | TGI (MCF7 breast) | GI50 (SNB-19 CNS) | TGI (SNB-19 CNS) | GI50 (NCI/ADR-RES ovarian) | TGI (NCI/ADR-RES ovarian) | GI50 (SF-268 CNS) | TGI (SF-268 CNS) | TGI (EKVX NSCLC) | TGI (M14 melanoma) | GI50 (EKVX NSCLC) | GI50 (M14 melanoma)
COc1ccc(S(=O)(=O)Nc2c(/C=C\c3cc(OC)c(OC)c(OC)c3)ccc(OC)c2O)cc1 | 0.0286 µM | > 100 µM | 0.0693 µM | 70.7 µM | 0.0397 µM | > 100 µM | 0.0301 µM | > 100 µM | 0.038 µM | > 100 µM | 0.0602 µM | > 100 µM | 0.155 µM | 0.598 µM | 0.0838 µM | 91.6 µM | – | – | – | –
CC1C=CC(C(N)C(=O)O)O1 (configuration not stated) | – | > 100 µM | – | > 100 µM | – | > 100 µM | – | > 100 µM | – | – | – | > 100 µM | – | – | – | > 100 µM | > 100 µM | > 100 µM | – | –
CCOC(=O)c1[nH]c2cc(OC)c(OC)cc2c1CN(C)C | – | > 100 µM | – | > 100 µM | – | – | – | > 100 µM | – | – | – | > 100 µM | – | – | – | > 100 µM | > 100 µM | > 100 µM | – | –
CCN1C(=O)N(CC)C2C1NN=c1s/c(=C3\C(=O)N(C4CCCC4)c4ccccc43)c(=O)n12 (configuration not stated) | 0.37 µM | > 100 µM | 1.27 µM | > 100 µM | 1.54 µM | 14.4 µM | 2.02 µM | 57.5 µM | 0.382 µM | > 100 µM | 3.47 µM | 40.5 µM | – | – | 2.38 µM | 27.6 µM | > 100 µM | 6.73 µM | 3.36 µM | 0.913 µM
Cc1nc2sc3c(N)ncnc3c2c(C)c1C | > 25 µM | > 25 µM | > 25 µM | > 25 µM | > 25 µM | > 25 µM | > 25 µM | > 25 µM | > 25 µM | > 25 µM | > 25 µM | > 25 µM | > 25 µM | > 25 µM | > 25 µM | > 25 µM | – | > 25 µM | – | > 25 µM
O=C(CCC(=O)Nc1cccc(C(F)(F)F)c1)CC(=O)c1ccc2ccccc2c1 | – | > 100 µM | – | > 100 µM | – | – | – | > 100 µM | – | – | – | > 100 µM | – | – | – | > 100 µM | > 100 µM | > 100 µM | – | –
O=C(N/C(=C\c1ccccc1O)c1nc2ccccc2[nH]1)c1ccccc1 | – | > 100 µM | – | > 100 µM | – | > 100 µM | – | > 100 µM | – | – | – | > 100 µM | – | – | – | > 100 µM | > 100 µM | > 100 µM | – | –
O=C1C=C2CCCC2C(C(=O)O)(C(=O)O)C1 (configuration not stated) | – | > 100 µM | – | – | – | > 100 µM | – | > 100 µM | – | – | – | > 100 µM | – | – | – | > 100 µM | > 100 µM | > 100 µM | – | –
COCCc1n(Cc2ccc3ccccc3c2)c2ccccc2[n+]1Cc1ccc2ccccc2c1 | – | – | 1.61 µM | 2.99 µM | 1.26 µM | 2.73 µM | – | – | – | – | – | – | 11.2 µM | 53 µM | – | – | – | – | – | –
NCCCNc1nc2ccccc2c2c(=O)c3cccc(Cl)c3sc12 | – | – | 1.41 µM | 2.79 µM | – | – | – | – | – | – | – | – | 1.71 µM | 3.25 µM | – | – | 2.8 µM | 3.06 µM | 1.43 µM | 1.61 µM
CC(C)COC1Sc2ccccc2S1 | – | – | – | 30 µM | – | 41.3 µM | – | > 100 µM | – | – | – | 32.8 µM | – | – | – | 66.3 µM | 38.1 µM | 52.4 µM | – | –
NS(=O)(=O)c1ccc(NC(=O)C2C(=O)C(=O)N(c3ccc(S(N)(=O)=O)cc3)C2=O)cc1 (configuration not stated) | – | > 100 µM | – | > 100 µM | – | > 100 µM | – | > 100 µM | – | – | – | > 100 µM | – | – | – | > 100 µM | > 100 µM | > 100 µM | – | –
CCCCCCCCCCCCN=C(N)c1ccc(N2CCN(c3ccc(C(N)=NCCCCCCCCCCCC)cc3)CC2)cc1 | 6.82 µM | > 50 µM | 20.7 µM | > 50 µM | 6.96 µM | 14.6 µM | 1.56 µM | 10.9 µM | – | – | 11 µM | 20.5 µM | 33.3 µM | > 50 µM | 9.84 µM | 21.1 µM | 20.5 µM | 16.4 µM | 9.76 µM | 7.82 µM
N#C/C(=C1\OC(=N)C(c2ccccc2)C1=O)c1ccccc1 (configuration not stated) | – | 74.6 µM | – | 31.8 µM | – | > 100 µM | – | 48.6 µM | – | – | – | > 100 µM | – | – | – | > 100 µM | > 73.2 µM | > 59.5 µM | – | –
CCCCCCCCCCCCCCCC(=O)OCCOCCOCCOCCOCCOC(=O)CCCCCCCCCCCCCCC | – | > 100 µM | – | > 100 µM | – | > 100 µM | – | > 100 µM | – | – | – | > 100 µM | – | – | – | > 100 µM | > 100 µM | > 100 µM | – | –
